# Test results: patent US20060122232A1, “4-Hydroxyfuroic acid derivatives” (DEVELOPMENT CENTER FOR BIOTECHNOLOGY, priority 2004, published 2006)
# Biological target: T1, human insulin receptor (CHO.IR cells) (Homo sapiens, UniProt P06213)
# T1 construct: host or cells: CHO.IR cells (CHO)
# Assay: Cell-based assay for insulin receptor tyrosine kinase activity
# Conditions: 20 min; CHO.IR cells treated with 100 μM of compound; read-out: reduction in tyrosine kinase activity
# Method: CHO.IR cells overexpressing human insulin receptor were obtained from Stanford University. Approximately 1.5×10^5 cells were seeded in each well of a 96-well plate containing Hams F12 medium plus 10% fetal calf serum, fungizone, penicillin, and streptomycin. The cells were incubated at 37° C. for approximately 24 hours, allowing cells to reach confluency. The cells were then washed with phosphate buffered saline (PBS) three times and then incubated in serum-free medium at 37° C. for 2 hours. Insulin or test compounds were added to the wells and the cells were incubated for an additional 20 minutes at 37° C. The cells were washed with PBS three times and then lysed in 60 μL/well of a lysis buffer containing 50 mM HEPES, pH 7.4, 1% Triton X-100, 5 mM EDTA, 5 mM EGTA, 20 mM sodium pyrophosphate, 1 mM sodium vanadate, 20 mM sodium fluoride, 1 mg/mL Bacitracin, 150 mM sodium chloride, 2 μg/mL Aprotonin, and 1 mM PMSF. Lysates were transferred to a second 96-well plate pre-coated with monoclonal anti-insulin receptor antibody (0.2 μg/50 μL/well, in 20 mM NaHCO3, pH 9.6). The second plate was incubated at 4° C. for 16 hours to immunoabsorb insulin receptors.
# CHO.IR cells were cultured at approximately 1.5×10^5 cells/well (in a 96-well plate) in a Hams F12 medium supplemented with 10% fetal calf serum, fungizone, penicillin, and streptomycin. The cells were incubated at 37° C. for 24 hours, allowing cells to reach confluency. The cells were then washed with PBS three times and then incubated in serum-free medium at 37° C. for 2 hours. Insulin or test compounds were added to the cells and incubated for an additional 20 minutes at 37° C. The cells were washed three times with PBS and lysed in the same 60 μL lysis buffer as mentioned in Example 174. Lysates were transferred to a second 96-well plate pre-coated with monoclonal anti-insulin receptor antibody (under the same conditions as those mentioned in Example 174). Lysates were incubated at 4° C. for 16 hours to immunoabsorb insulin receptors.
# 20 μL of a kinase reaction mixture (50 mM Hepes, pH 7.6, 150 mM NaCl, 5 mM MgCl2, 5 mM MnCl2, 0.1% Triton x-100, 1 mg/mL poly(Glu:Tyr)(4:1), 2 μCi of carrier-free [γ-^32P]ATP) was added to each well. After reacting at 25° C. for 40 minutes, the reaction mixture was transferred to a Multiscreen pH plate (Millipore, Billerica, Mass.) and unbound ATP was washed away. The insulin receptor tyrosine kinase activity was determined by detecting the radioactivities associated with the wells using a Topcount scintillation counter (Perkin-Elmer, Wellesley, Mass.).
# T1 sequence (P06213 28-758 limits assumed): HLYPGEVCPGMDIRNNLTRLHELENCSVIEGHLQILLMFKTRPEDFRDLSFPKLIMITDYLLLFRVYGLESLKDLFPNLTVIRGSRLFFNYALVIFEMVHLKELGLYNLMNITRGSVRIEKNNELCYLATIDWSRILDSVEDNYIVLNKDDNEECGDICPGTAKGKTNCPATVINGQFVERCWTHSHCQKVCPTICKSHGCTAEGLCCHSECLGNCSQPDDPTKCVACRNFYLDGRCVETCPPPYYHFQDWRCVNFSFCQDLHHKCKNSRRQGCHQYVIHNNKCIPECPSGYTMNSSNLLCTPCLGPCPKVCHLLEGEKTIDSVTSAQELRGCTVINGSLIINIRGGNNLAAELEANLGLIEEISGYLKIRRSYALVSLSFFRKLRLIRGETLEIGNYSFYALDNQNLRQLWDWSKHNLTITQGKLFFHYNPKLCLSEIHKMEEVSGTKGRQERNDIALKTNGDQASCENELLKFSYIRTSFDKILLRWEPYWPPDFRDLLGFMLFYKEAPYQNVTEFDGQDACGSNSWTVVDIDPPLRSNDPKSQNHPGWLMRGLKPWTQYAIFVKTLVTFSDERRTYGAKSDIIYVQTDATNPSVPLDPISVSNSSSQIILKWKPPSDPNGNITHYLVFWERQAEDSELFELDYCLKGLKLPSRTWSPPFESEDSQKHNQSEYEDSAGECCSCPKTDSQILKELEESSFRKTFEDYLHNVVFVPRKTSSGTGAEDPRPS
# T1 sequence (P06213 763-1382 limits assumed): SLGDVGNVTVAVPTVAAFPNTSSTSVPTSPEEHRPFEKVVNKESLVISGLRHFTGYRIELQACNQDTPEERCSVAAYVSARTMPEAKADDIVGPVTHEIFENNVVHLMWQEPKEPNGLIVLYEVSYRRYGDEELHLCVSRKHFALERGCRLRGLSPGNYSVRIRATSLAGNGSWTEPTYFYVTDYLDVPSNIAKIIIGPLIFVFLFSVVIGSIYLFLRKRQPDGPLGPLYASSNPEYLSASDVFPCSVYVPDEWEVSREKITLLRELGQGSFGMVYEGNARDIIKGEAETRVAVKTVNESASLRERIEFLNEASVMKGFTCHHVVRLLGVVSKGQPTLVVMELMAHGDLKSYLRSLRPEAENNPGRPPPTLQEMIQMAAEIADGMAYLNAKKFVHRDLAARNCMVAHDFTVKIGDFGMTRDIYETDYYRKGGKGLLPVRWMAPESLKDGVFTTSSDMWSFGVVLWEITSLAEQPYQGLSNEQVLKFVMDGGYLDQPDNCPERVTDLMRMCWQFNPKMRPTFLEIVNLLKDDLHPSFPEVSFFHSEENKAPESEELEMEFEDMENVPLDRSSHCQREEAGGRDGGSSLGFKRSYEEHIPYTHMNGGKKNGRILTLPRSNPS
row,SMILES,inhibition at 100 µM [%]
1,O=C(O)c1oc(C(=O)c2c[nH]c3c(CCCCCO)cccc23)c(O)c1-c1c[nH]c2ccccc12 [Compound 30],12 to 53
2,O=C(O)c1oc(C(=O)c2c[nH]c3c(CCCO)cccc23)c(O)c1-c1c[nH]c2ccccc12 [Compound 9],12 to 53
3,O=C(O)c1oc(C(=O)c2c[nH]c3c(CCCCO)cccc23)c(O)c1-c1c[nH]c2ccccc12 [Compound 21],12 to 53

# Second part, the compound after the results:
row,inhibition at 100 µM [%],SMILES
1,12 to 53,O=C(O)CCCCc1cccc2c(C(=O)c3oc(C(=O)O)c(-c4c[nH]c5ccccc45)c3O)c[nH]c12 [Compound 172]
2,12 to 53,O=C(O)CCc1cccc2c(C(=O)c3oc(C(=O)O)c(-c4c[nH]c5ccccc45)c3O)c[nH]c12 [Compound 170]
3,12 to 53,CCCCCc1cccc2c(C(=O)c3oc(C(=O)O)c(-c4c[nH]c5ccccc45)c3O)c[nH]c12 [Compound 171]
4,12 to 53,O=C(O)c1sc(C(=O)c2c[nH]c3c(CCCCCO)cccc23)c(O)c1-c1c[nH]c2ccccc12 [Compound 114]
5,12 to 53,O=C(O)c1oc(C(=O)c2c[nH]c3c(CCCC(CO)CO)cccc23)c(O)c1-c1c[nH]c2ccccc12 [Compound 173]
